Laboratory results taken from patent publication US9457008B2, “Joint product comprising synephrine and topiramate” (Institute of Pharmacology and Toxicology Academy of …, priority 2012, dated 2016).

Assay: Effects of different dissolution media on release rate of sustained-release pellet of topiramate
Assay type: physicochemical
Details: 0.1 mol/L HCl (pH1.2), 37° C.
Protocol: In order to verify whether acidic, basic solvent media would influence the release rate of the sustained-release pellets of the present invention, 0.1 mol/L HCl (pH1.2) was prepared as artificial gastric fluid, […] phosphate buffer (pH6.8) was prepared as artificial intestinal fluid, and these media and water (500 ml) were used as release media, rotation speed was 100 rpm, 37° C. Samples (5 ml, supplemented with equivalent volume of media at the meantime) were taken at 1, 2, 4, 8, 12, 16, 20, 24 h, filtrated, and the subsequent filtrates were used as test solutions. High performance liquid chromatography (Appendix V D, Part II of Chinese Pharmacopoeia, 2010 Edition) was used, octylsilane-bonded silica gel was used as packing agent, 50% methanol was mobile phase, differential refractive detector was used, flow rate was 1.5 ml per minute. 200 μl of test solution was taken, injected in liquid chromatograph, the peak area of topiramate as main drug was recorded; topiramate was separately taken as control sample and measured by the same method, and accumulative release percentages of drug at different time points were calculated by external standard method. The release profile of sample of Batch 1 in Example 16 (2) in the above media were drawn, and the results were shown in FIG. 4.

CC1(C)O[C@@H]2[C@@H](CO[C@@]3(COS(N)(=O)=O)OC(C)(C)O[C@@H]23)O1 [topiramate, 2,3,4,5-bis-O-(1-methylethylene)-β-D-fructopyranose sulfamate]
stability in pH1.2 artificial gastric fluid: unstable
